Laboratory results as given in patent publication US5747521A (priority 1992, dated 1998).
Where two headings read alike, the source gives them in different places.

What was measured:
in vivo [1] = assay: in vivo; design: species or system male SD-rats; details: rat, po
Experimental: A solution of a drug was administered through the mouths of a group of 8 mature male SD-rats (weight 130±20 g) performing a fast for 24 hours. […] Capacity which causes 50% bleeding (UD50) was calculated according to the Ritchfield and Wilcoxon method (J. Pahrmacol., 69, 99, 1949) with bleeding more than 1 mm in diameter as positivity.

in vivo [2] = details: mouse
[3] = tested on: carrageenan induced hind-paw edema; assay: Anti-inflammatory activity test (carrageenan induced hind-paw edema method, Winter); format: in vivo, male rats; details: for A rate of inhibition: 100 mg/kg p.o., 1% carrageenan one hour after dosing, edema measured 3 hours and 5 hours thereafter, significance (p.v.) 0.01; for edema inhibition effect / anti-inflammatory action: conclusion in words from Table 2
Experimental: The volume of legs was measured before a solution of a drug was administered to a group of 8 mature male rats (weight 170±20 g) and 0.1 ml /rat of 1% carrageenan physiological saline solution was injected subcutaneously into the sole of hind of leg of rats one hour after the oral administration and edema thereby caused was measured 3 hours and 5 hours thereafter. In this way, a rate of edema formation and a rate of inhibition were calculated.

[4] = tested on: number of stretchings (anti-writhing); assay: Analgesic activity test (anti-writhing method by Whittle); format: in vivo, male ICR-mice; details: for ED50: Mus musculus, 1 h, read-out: ED50 Oral administration; for analgesic activity / analgesic action: conclusion in words from Table 3
Experimental: After the lapse of 60 minutes, the number of stretchings in the course of 10 minutes was measured as an index to a algesic sense.

[5] = ip, read-out: LD50 Abdominal administration
[6] = oral, single dose, fasted mice, mortality up to 72 hours, read-out: LD50 Oral administration
[7] = oral, stretchings counted in 10 minutes, 60 minutes after dosing

SMILES | TD50 at 4 h (in vivo [1]) [mg/kg] | LD50 at 72 h (in vivo [2]; [5]) [mg/kg] | LD50 at 72 h (in vivo [2]; [6]) [mg/kg] | A rate of inhibition [3] [%] | edema inhibition effect / anti-inflammatory action [3] | ED50 [4, 7] [mg/kg] | analgesic activity / analgesic action [4] | ED50 ([4]; po) [mg/kg] | LD50 at 72 h (in vivo [2]; ip, into the abdominal cavity, single dose, fasted mice, mortality up to 72 hours, read-out: LD50 Abdominal administration) [mg/kg]
COc1ccc2c(c1)c(CC(=O)OCC1CCCCO1)c(C)n2C(=O)C=Cc1ccccc1 (stereo not shown) [Compound 3, 0-(2-tetrahydropyranilmethyl)-N-cinnamoyl-5-methoxy-2methyl-3-indoleacetate] | 230 | 1150 | 6000 | 43 | significant anti-inflammatory action | 95 | significant analgesic action | – | –
COc1ccc2c(c1)c(CC(=O)O)c(C)n2C(=O)C=Cc1ccccc1 [Cinmetacin, N-cinnamoyl-2-methyl-5-methoxy-3-indoleacetic acid, reference compound] | 18 | – | – | 65 | – | – | – | 36 | –
COc1ccc2c(c1)c(CC(=O)OC(C)C(C)O)c(C)n2C(=O)C=Cc1ccccc1 (stereo not shown) [Compound 2, 0-(3-hydroxy-2-buthanyl)-cinnamoyl-5-methoxy-2-methyl-3-indoleacetate] | 175 | 570 | 4200 | 52 | almost similar to the widely known cinmetacin | 31 | analgesic activity equal to cinmetacin | – | –
CC1=C(CC(=O)O)c2cc(F)ccc2/C1=C\c1ccc([S+](C)[O-])cc1 (stereo not shown) [Sulindac, reference compound] | 14 | – | 980 | – | – | – | – | 60 | 235
COc1ccc2c(c1)c(CC(=O)OCC=CCO)c(C)n2C(=O)C=Cc1ccccc1 [Compound 1, 0-(4-hydroxy-2-butene)-N-cinnamoyl-5-methoxy-2-methyl-3-indoleacetate] | 100 | 520 | 2000 | 57 | almost similar to the widely known cinmetacin | 70 | significant analgesic action | – | –
